Measured values reported in publication PMC7266096 (ACS infectious diseases, 2020).
pIC50: −log10 of the molar value. Converted amounts (≈) assume the structure as drawn. Like-named read-outs stand apart in the source and are kept apart here. Marks after values point to notes of the source that are not given here.

How the values were obtained:
[1] = biological target: T1, NDM-1 (Klebsiella pneumoniae, UniProt C7C422); experiment: biochemical; assay type: biochemical; details: for inhibition of nitrocefin turnover: at the concentrations tested, up to 320 μM
Target sequence in this assay (C7C422 29-270, looked up): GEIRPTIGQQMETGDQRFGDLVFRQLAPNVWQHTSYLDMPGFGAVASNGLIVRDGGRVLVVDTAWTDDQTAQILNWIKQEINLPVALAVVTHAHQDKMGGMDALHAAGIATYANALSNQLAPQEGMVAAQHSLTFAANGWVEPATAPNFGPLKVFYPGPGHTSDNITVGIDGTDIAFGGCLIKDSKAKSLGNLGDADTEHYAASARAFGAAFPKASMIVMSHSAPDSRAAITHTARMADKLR

[2] = system: susceptible strains; details: no reference given; cited from earlier work
[3] = system: E. coli UTI89 expressing NDM-1; experiment: microbe, parasite or virus in culture; assay type: cell-based; details: for MIC: Escherichia coli; for UTI89 MIC: compound alone, Mueller-Hinton broth
[4] = system: E. coli MG1655 expressing NDM-1; experiment: microbe, parasite or virus in culture; assay type: cell-based; details: for MIC: Escherichia coli; for MG1655 MIC: compound alone, 20 h, Mueller-Hinton broth
[5] = system: E. coli MG1655 expressing NDM-1; assay type: cell-based
[6] = system: E. coli MG1655 expressing CTX-M-1; assay type: cell-based
[7] = biological target: T1, NDM-1; assay type: biochemical; details: 0–60 μM inhibitor; for change of Vmax with increasing inhibitor concentration: 10 nM NDM-1, Figure S5; for inhibition mode: 10 nM NDM-1, nitrocefin 63–500 μM
Target sequence in this assay (C7C422 29-270, looked up): as above

[8] = biological target: T1, NDM-1; assay type: binding; details: 10 μM NDM-1, after dialysis
Target sequence in this assay (C7C422 29-270, looked up): as above

[9] = biological target: CoCo-NDM-1 (Klebsiella pneumoniae, UniProt C7C422); assay type: binding; details: 300 μM CoCo-NDM-1, one or two equivalents of compound
Chain of CoCo-NDM-1 (C7C422 29-270, looked up): as above

[10] = biological target: T1, NDM-1; assay type: cell-based, E. coli; details: for reduction of nitrocefin turnover: 100 μM, treated for 60 minutes at room temperature
Target sequence in this assay (C7C422 37-270 limits assumed): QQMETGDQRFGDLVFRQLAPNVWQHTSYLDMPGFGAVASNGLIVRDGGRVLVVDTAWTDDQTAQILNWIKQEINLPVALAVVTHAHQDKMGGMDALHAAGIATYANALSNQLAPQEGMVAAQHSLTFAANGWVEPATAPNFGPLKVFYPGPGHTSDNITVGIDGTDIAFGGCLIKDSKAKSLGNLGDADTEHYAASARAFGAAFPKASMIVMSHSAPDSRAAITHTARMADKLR

[11] = biological target: T1, NDM-1; experiment: Turnover of PcephPT by purified NDM-1; assay type: biochemical; details: 5 nM NDM-1, concentrations up to 160 μM, HEPES pH 7.2, 37 °C
Target sequence in this assay (C7C422 29-270, looked up): as the sequence (C7C422 29-270, looked up) above

[12] = MG1655, 20 h, read-out: MG1655 MIC
[13] = OD600 every 30 minutes over 20 h

Compound: CO/N=C(\C(=O)N[C@@H]1C(=O)N2C(C(=O)O)=C(CSc3nc(=O)c(=O)[nH]n3C)CS[C@H]12)c1csc(N)n1 [Ceftriaxone]
- pIC50 [1]: 4.80

Compound: CC1=C(C(=O)O)N2C(=O)[C@@H](NC(=O)[C@H](N)c3ccccc3)[C@H]2SC1 [Cephalexin]
- pIC50 [1]: 4.44

Compound: CC(=O)OCC1=C(C(=O)O)N2C(=O)[C@@H](NC(=O)Cc3cccs3)[C@H]2SC1 [Cephalothin]
- pIC50 [1]: 5.04

Compound: O=C(O)c1cccc(C(=O)O)n1 [DPA, dipicolinic acid]
- pIC50 [1]: 5.74

Compound: C[C@@H](O)[C@H]1C(=O)N2C(C(=O)O)=C(SCCN=CN)C[C@H]12 [Imipenem]
- pIC50 [1]: < 4.00
- inhibition of nitrocefin turnover [1]: did not inhibit nitrocefin turnover

Compound: C[C@@H](O)[C@H]1C(=O)N2C(C(=O)O)=C(S[C@@H]3CN[C@H](C(=O)N(C)C)C3)[C@H](C)[C@H]12 [Meropenem]
- MIC [2]: lower than 10 μM
- MIC ([3]; 20 h, read-out: UTI89 MIC): > 160 µM
- MIC ([3]; read-out: UTI89 MIC of meropenem): 10 µM
- UTI89 MIC ([3]; 20 h): >160 µM
- UTI89 MIC of meropenem ([3]; with fixed 10 μM PT): not restored
- UTI89 MIC of meropenem ([3]; with fixed 10 μM PcephPT): not restored
- pIC50 [1]: < 4.00
- inhibition of nitrocefin turnover [1]: did not inhibit nitrocefin turnover
- MIC [4, 12]: > 160 µM
- MIC ([4]; MG1655, read-out: MG1655 MIC of meropenem): 10 µM
- MG1655 MIC [4]: >160 µM
- MG1655 MIC of meropenem ([4]; with fixed 10 μM PT): not restored
- MG1655 MIC of meropenem ([4]; with fixed 10 μM PcephPT): not restored

Compound: [O-][n+]1ccccc1S [PT, pyrithione]
- concentration that fully inhibits growth [5, 13]: ≥ 20 µM
- growth pattern ([5]; at 10 μM): delayed growth
- concentration that fully inhibits growth [6, 13]: ≥ 20 µM
- growth pattern ([6]; at 10 μM): delayed growth
- change of Vmax with increasing inhibitor concentration [7]: clear decrease in Vmax
- inhibition mode [7]: not competitive
- MIC ([3]; 20 h, read-out: UTI89 MIC): 40 µM (≈ 5.09 µg/mL)
- pIC50 [1]: 4.77
- zinc removed from NDM-1 ([8]; 40 μM (four equivalents)): did not lead to loss of zinc
- zinc removed from NDM-1 ([8]; 160 μM (sixteen equivalents)): did not lead to loss of zinc
- change of CoCo-NDM-1 UV-Vis spectrum [9]: increase in absorbance in the 500–650 nm region
- reduction of nitrocefin turnover [10]: more than 75%
- MIC [4, 12]: 20 µM (≈ 2.54 µg/mL)

Compound: O=C(Cc1ccccc1)N[C@@H]1C(=O)N2C(C(=O)O)=C(CSc3cccc[n+]3[O-])CS[C@H]12 [PcephPT, 2-((((6R,7R)-2-carboxy-8-oxo-7-(2-phenylacetamido)-5-thia-1-azabicyclo[4.2.0]oct-2-en-3-yl)methyl)thio)pyridine 1-oxide]
- effect of addition of copper on growth pattern ([5]; Figure S3): no significant difference
- time of onset of growth inhibition ([5]; at concentrations of 40 μM and higher): between five and eight hours
- concentration giving delayed onset of growth inhibition ([5]; growth initially in all conditions): ≥ 40 µM
- turnover of compound by NDM-1 [11]: turned over by 5 nM NDM-1 efficiently
- growth pattern ([6]; varying concentrations, compared with PT): identical to that caused by PT
- change of Vmax with increasing inhibitor concentration [7]: clear decrease in Vmax
- inhibition mode [7]: not competitive
- MIC ([3]; 20 h, read-out: UTI89 MIC): > 160 µM
- UTI89 MIC ([3]; 20 h): >160 ^* μM
- effect of increasing incubation time with NDM-1 on IC50 ([1]; Figure S2): did not affect its IC50
- zinc removed from NDM-1 ([8]; 40 μM (four equivalents)): did not lead to loss of zinc
- zinc removed from NDM-1 ([8]; 160 μM (sixteen equivalents)): did not lead to loss of zinc
- change of CoCo-NDM-1 UV-Vis spectrum [9]: increase in absorbance in the 500–650 nm region
- reduction of nitrocefin turnover [10]: more than 75%
- inhibition of nitrocefin turnover ([10]; cells exposed for only 30 minutes, compared with 60 minutes): less inhibited
- MIC [4, 12]: > 160 µM
- MG1655 MIC [4]: >160 ^* μM

Compound: c1ccc(CN(CCN(Cc2ccccn2)Cc2ccccn2)Cc2ccccn2)nc1 [TPEN, N,N,N′,N′-tetrakis(2-pyridinylmethyl)-1,2-ethanediamine]
- pIC50 [1]: 7.06
